Test results as given in patent EP0603240B1, “SAFENING HERBICIDAL PYRAZOLYLSULFONYLUREAS” (priority 1991, dated 1993).

Tests used:
corn [1] = test: Example 18, Procedure II: Herbicide No. 1 + ERADICANE (EPTC + R-25788) with auxiliary antidotes; type: in vivo
Procedure: (§1) Containers were filled and compacted with a fumigated silt loam top soil to a depth of about 1.3 cm from the top of the container. A first container was designated as an untreated control, a second container was designated as a herbicide control, and a third container was designated as a herbicide + antidote test container. Each of the containers was seeded with a crop species. A measured amount of herbicide dispersed or dissolved in acetone was applied to a measured quantity of soil. To this same quantity of soil treated with herbicide, there was added a measured amount of antidote dispersed or dissolved in acetone. The quantity of soil treated with the herbicide and antidote was thoroughly mixed to incorporate the herbicide and antidote in the soil uniformly. The seed bed in the third container of soil was covered with the soil treated with the herbicide and antidote and the container was leveled. For each test series, the seed beds of the first and second containers were likewise covered by soil layers. the cover layer of the first container was not treated with herbicide or antidote.
(§2) The containers were then placed on a bench in a greenhouse and sub-irrigated as required for the duration of the test. […] Plant response is measured in terms of percent injury. Antidote efficacy is indicated as the difference in plant injury by the herbicide(s) without the antidote and with the antidote.
(§3) This procedure is the same as Procedure I, but modified in the manner that after incorporation of the chemicals (herbicide and antidote) the containers with the covered seedbed were treated with an initial overhead irrigation equivalent to 0.6 cm rainfall, then subsequently sub-irrigated as required on greenhouse benches.
In the test reported in this example, the herbicidal composition was similar to that used in Example 16 in that Herbicide No. 1 was combined with EPTC (Herbicide No. 4) as a co-herbicide and the antidotes included Nos. 1, 2, 7, 13 and 15. However, in this test the EPTC was introduced as a formulation of ERADICANE (EPTC + the antidote R-25788, i.e., Antidote No. 1) at an application rate of 8.96 kg/ha. Thus, in this test two antidotes were present, viz. R-25788 and one of the auxilliary antidotes, No. 2, 13 and 15.
Test procedures were those of Procedure II above.

[2] = tested on: barnyardgrass (Echinochloa crusgalli); test: Example 8, Procedure II: Herbicide No. 1 + butachlor (No. 9) with antidotes; type: in vivo
Procedure: as §1, §2, §3
(§4) In the series of greenhouse tests described below, for routine screening purposes the herbicide/antidote compositions were tested in crop/weed combinations involving corn as the crop and either or both of the weeds barnyardgrass (Echinochloa crusgalli), a monocotyledonous weed, and velvetleaf (Abutilon theophrasti), a dicotyledonous weed. In the tables below, these weeds are indicated by the symbols "BYG" and "VL", respectively.
(§5) In this test, the efficacy of the same five antidotes used in Examples 6 and 7 was investigated in compositions comprising Herbicide No. 1 and as a co-herbicide, butachlor (Herbicide No. 9), active ingredient in MACHETE® herbicide, a leading commercial rice herbicide. The test procedure used in this example was the same as that in Examples 6 and 7.

[3] = tested on: velvetleaf (Abutilon theophrasti); test: as above; type: in vivo
Procedure: as §1, §2, §3, §4, §5

corn [4] = test: Example 25, greenhouse preemergence test: Antidote Nos. 1 and 2 against Herbicide Nos. 1-3; type: in vivo, Corn (Pioneer 3424 variety); conditions: Preemergence
Procedure: The chemicals were tested in both preemergence and post-emergence modes of application. The herbicides were prepared and applied as wettable powders; dichlormid was applied as an emulsifiable concentrate, while the naphthalic anhydride was applied as a coating on the corn seed prior to planting.
Test data from the preemergence tests are shown in Table 25A and from the post-emergence tests in Table 25B. In the tables, the concentration of chemicals is shown in terms of active ingredient in grams per hectare (G/ha); concentrations of the naphthalic anhydride were not measured per se, but were present as in conventional, normally-coated applications. Corn injury is shown in terms of percent inhibition of growth.

[5] = tested on: barnyardgrass (Echinochloa crusgalli); test: Example 9, Procedure II: Herbicide No. 1 + pretilachlor (No. 13) with antidotes; type: in vivo
Procedure: as §1, §2, §3, §4
(§6) In this example the safening effect on a composition comprising Herbicide No. 1 and another leading rice herbicide, i.e., Herbicide No. 13, was investigated using the same antidotes and test procedure described in the preceding example. Herbicide No. 13 is pretilachlor, active ingredient used in the commercial rice herbicides RIFIT®, SOFIT® and SOFIT® SUPER.

[6] = tested on: velvetleaf (Abutilon theophrasti); test: as above; type: in vivo
Procedure: as §1, §2, §3, §4, §6

corn [7] = test: Example 12, Procedure II: Herbicide No. 1 + acetochlor (No. 6) with thirteen antidotes; type: in vivo
Outline: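 Herbicide and antidote in acetone were mixed into silt loam used to cover the corn seed bed, alongside untreated and herbicide-only controls. After incorporation, an overhead irrigation equal to 0.6 cm rainfall was given, then sub-irrigation in a greenhouse. Injury was scored as percent; safening is the injury difference without versus with antidote.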

corn [8] = test: Example 9, Procedure II: Herbicide No. 1 + pretilachlor (No. 13) with antidotes; type: in vivo
Procedure: as §1, §2, §3, §6

[9] = Herbicide No.1 0.56 kg/ha + ERADICANE 8.96 kg/ha, antidote 2.24 kg/ha
[10] = Herbicide No.1 0.56 kg/ha + ERADICANE 8.96 kg/ha, antidote 8.96 kg/ha
[11] = Herbicide No.1 1.12 kg/ha + ERADICANE 8.96 kg/ha, antidote 2.24 kg/ha
[12] = Herbicide No.1 1.12 kg/ha + ERADICANE 8.96 kg/ha, antidote 8.96 kg/ha
[13] = Herbicide No.1 0.14 + No.9 2.24 kg/ha + antidote 2.24 kg/ha
[14] = Herbicide No.1 0.14 + No.9 2.24 kg/ha + antidote 8.96 kg/ha
[15] = Herbicide No.1 0.56 + No.9 2.24 kg/ha + antidote 2.24 kg/ha
[16] = Herbicide No.1 0.56 + No.9 2.24 kg/ha + antidote 8.96 kg/ha
[17] = Herbicide No.1 0.14 kg/ha + Herbicide No.13 2.24 kg/ha, antidote rate 2.24 kg/ha
[18] = Herbicide No.1 0.14 kg/ha + Herbicide No.13 2.24 kg/ha, antidote rate 8.96 kg/ha
[19] = Herbicide No.1 0.56 kg/ha + Herbicide No.13 2.24 kg/ha, antidote rate 2.24 kg/ha
[20] = Herbicide No.1 0.56 kg/ha + Herbicide No.13 2.24 kg/ha, antidote rate 8.96 kg/ha

| SMILES | % Injury Corn (corn [1]; [9]) [%] | % Injury Corn (corn [1]; [10]) [%] | % Injury Corn (corn [1]; [11]) [%] | % Injury Corn (corn [1]; [12]) [%] | % Injury BYG [2, 13] [%] | % Injury BYG [2, 14] [%] | % Injury BYG [2, 15] [%] | % Injury BYG [2, 16] [%] | % Injury VL [3, 13] [%] | % Injury VL [3, 14] [%] | % Injury VL [3, 15] [%] | % Injury VL [3, 16] [%] | % Injury BYG [5, 17] [%] | % Injury BYG [5, 18] [%] | % Injury BYG [5, 19] [%] | % Injury BYG [5, 20] [%] | % Injury VL [6, 17] [%] | % Injury VL [6, 18] [%] | % Injury VL [6, 19] [%] | % Injury VL [6, 20] [%] | other results |
| --- | --- | --- | --- | --- | --- | --- | --- | --- | --- | --- | --- | --- | --- | --- | --- | --- | --- | --- | --- | --- | --- |
| COC(=O)c1c(Cl)nn(C)c1S(=O)(=O)NC(=O)Nc1nc(OC)cc(OC)n1 [No.1] | – | – | – | – | – | – | – | – | – | – | – | – | – | – | – | – | – | – | – | – | % Injury Corn (corn [1]; Herbicide No.1 0.56 kg/ha + ERADICANE 8.96 kg/ha, no added antidote): 25%; % Injury Corn (corn [1]; Herbicide No.1 0.56 kg/ha alone): 30%; % Injury Corn (corn [1]; Herbicide No.1 1.12 kg/ha + ERADICANE 8.96 kg/ha, no added antidote): 20%; % Injury Corn (corn [1]; Herbicide No.1 1.12 kg/ha alone): 25% |
| O=C1OC(=O)c2cccc3cccc1c23 [compound 2] | 15 | 25 | 20 | 20 | 99 | 99 | 99 | 98 | 70 | 75 | 90 | 80 | 100 | 100 | 100 | 100 | 80 | 75 | 85 | 80 | % Inhibition Corn (corn [4]; Herbicide No. 1 0.25 G/ha + antidote as seed treatment (concentration not measured)): 18.2%; % Inhibition Corn (corn [4]; Herbicide No. 1 0.74 G/ha + antidote as seed treatment (concentration not measured)): 31.2%; % Inhibition Corn (corn [4]; Herbicide No. 2 0.25 G/ha + antidote as seed treatment (concentration not measured)): 31.5%; % Inhibition Corn (corn [4]; Herbicide No. 2 0.74 G/ha + antidote as seed treatment (concentration not measured)): 18.9%; % Inhibition Corn (corn [4]; Herbicide No. 2 2.5 G/ha + antidote as seed treatment (concentration not measured)): 31.9%; % Inhibition Corn (corn [4]; Herbicide No. 3 0.07 G/ha + antidote as seed treatment (concentration not measured)): 13.2%; % Inhibition Corn (corn [4]; Herbicide No. 3 0.25 G/ha + antidote as seed treatment (concentration not measured)): 29.3%; % Inhibition Corn (corn [4]; Herbicide No. 3 0.74 G/ha + antidote as seed treatment (concentration not measured)): 46.9%; % Inhibition Corn (corn [4]; antidote alone as seed treatment (concentration not measured), no herbicide): 17.4% |
| CC1(C(Cl)Cl)OCCO1 [compound 13] | 10 | 20 | 10 | 40 | 99 | 99 | 99 | 100 | 75 | 80 | 85 | 85 | 100 | 100 | 100 | 100 | 70 | 75 | 90 | 90 | % Injury Corn (corn [7]; Herbicide No.1 0.14 kg/ha + Herbicide No.6 2.24 kg/ha, antidote rate 2.24 kg/ha): 10%; % Injury Corn (corn [7]; Herbicide No.1 0.14 kg/ha + Herbicide No.6 2.24 kg/ha, antidote rate 8.96 kg/ha): 30%; % Injury Corn (corn [7]; Herbicide No.1 0.56 kg/ha + Herbicide No.6 2.24 kg/ha, antidote rate 2.24 kg/ha): 35%; % Injury Corn (corn [7]; Herbicide No.1 0.56 kg/ha + Herbicide No.6 2.24 kg/ha, antidote rate 8.96 kg/ha): 40%; % Injury Corn (corn [8]; [17]): 10%; % Injury Corn (corn [8]; [18]): 0%; % Injury Corn (corn [8]; [19]): 25%; % Injury Corn (corn [8]; [20]): 20% |
| O=C(C(Cl)Cl)N1CCOC12CCCCC2 [compound 7] | 15 | 20 | 15 | 10 | 97 | 99 | 99 | 99 | 70 | 65 | 75 | 65 | 100 | 100 | 100 | 100 | 80 | 75 | 85 | 85 | % Injury Corn (corn [8]; [17]): 10%; % Injury Corn (corn [8]; [18]): 0%; % Injury Corn (corn [8]; [19]): 30%; % Injury Corn (corn [8]; [20]): 25% |
